The series is described as follows: DSC miscibility screening of polymer-surfactant-ganaxolone combinations. In kind it is physicochemical. As to conditions: added to all formulations.

Consider `CCCC(CCC)C(=O)O` [Valproic acid], for which the “Effect of addition on crystallinity of the ganaxolone” value is “increased crystallinity”.

Source of the values: patent US20250032510A1, “AMORPHOUS SOLID DISPERSION GANAXOLONE FORMULATION” (MARINUS PHARMACEUTICALS, INC., priority 2021, published 2025).
